# Reference: PubChem BioAssay (NCI)
#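 Dose response: 5 concentrations. Exposure: 48 h. Format: 96-well plates. Endpoint: linear interpolation; highest concentration if not reached. At the GI50, growth is halved. TGI: concentration producing complete growth inhibition.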
# Assays:
# Experiment in all cases: NCI tumour cell line growth inhibition, 48 h
# UACC-62 melanoma = test system: UACC-62 melanoma
# HCC-2998 colon = test system: HCC-2998 colon
# T-47D breast = test system: T-47D breast
# MDA-MB-231 breast = test system: MDA-MB-231 breast
# 786-0 renal = test system: 786-0 renal
# SK-OV-3 ovarian = test system: SK-OV-3 ovarian
# SN12C renal = test system: SN12C renal
# SK-MEL-28 melanoma = test system: SK-MEL-28 melanoma
# SK-MEL-2 melanoma = test system: SK-MEL-2 melanoma
# DU-145 prostate = test system: DU-145 prostate
# M14 melanoma = test system: M14 melanoma
# MDA-MB-435 = test system: MDA-MB-435
# NCI-H522 lung = test system: NCI-H522 lung
# ACHN renal = test system: ACHN renal
# OVCAR-4 ovarian = test system: OVCAR-4 ovarian
# SF-268 CNS = test system: SF-268 CNS
# CAKI-1 renal = test system: CAKI-1 renal
# EKVX NSCLC = test system: EKVX NSCLC
# BT-549 breast = test system: BT-549 breast
# MALME-3M melanoma = test system: MALME-3M melanoma
# HL-60(TB) leukemia = test system: HL-60(TB) leukemia
# SF-295 CNS = test system: SF-295 CNS
# SNB-19 CNS = test system: SNB-19 CNS
# SK-MEL-5 melanoma = test system: SK-MEL-5 melanoma
# OVCAR-3 ovarian = test system: OVCAR-3 ovarian
# UO-31 renal = test system: UO-31 renal
# LOX IMVI melanoma = test system: LOX IMVI melanoma
# UACC-257 melanoma = test system: UACC-257 melanoma
# SR leukemia = test system: SR leukemia
# OVCAR-5 ovarian = test system: OVCAR-5 ovarian
# HOP-92 NSCLC = test system: HOP-92 NSCLC
# HOP-62 NSCLC = test system: HOP-62 NSCLC
# IGROV1 ovarian = test system: IGROV1 ovarian
# PC-3 prostate = test system: PC-3 prostate
# TK-10 renal = test system: TK-10 renal
# A498 renal = test system: A498 renal
# K-562 leukemia = test system: K-562 leukemia
# SNB-75 CNS = test system: SNB-75 CNS
# HCT-116 colon = test system: HCT-116 colon
# U251 CNS = test system: U251 CNS
# SF-539 CNS = test system: SF-539 CNS
# RXF 393 renal = test system: RXF 393 renal
# HCT-15 colon = test system: HCT-15 colon
smiles,measurement,setting,value
Cc1nnc([S-])o1.[Au+].c1ccc([PH+](c2ccccc2)c2ccccc2)cc1,GI50,UACC-62 melanoma,1350 nM
same,TGI,UACC-62 melanoma,2700 nM
same,GI50,HCC-2998 colon,1820 nM
same,TGI,HCC-2998 colon,3270 nM
same,GI50,T-47D breast,1870 nM
same,TGI,T-47D breast,4930 nM
same,GI50,MDA-MB-231 breast,1680 nM
same,TGI,MDA-MB-231 breast,3110 nM
same,GI50,786-0 renal,1640 nM
same,TGI,786-0 renal,3000 nM
same,GI50,SK-OV-3 ovarian,2280 nM
same,TGI,SK-OV-3 ovarian,4170 nM
same,GI50,SN12C renal,1670 nM
same,TGI,SN12C renal,3070 nM
same,GI50,SK-MEL-28 melanoma,1510 nM
same,TGI,SK-MEL-28 melanoma,2860 nM
same,GI50,SK-MEL-2 melanoma,1720 nM
same,TGI,SK-MEL-2 melanoma,3240 nM
same,GI50,DU-145 prostate,1750 nM
same,TGI,DU-145 prostate,3260 nM
same,GI50,M14 melanoma,1790 nM
same,TGI,M14 melanoma,3340 nM
same,GI50,MDA-MB-435,1620 nM
same,TGI,MDA-MB-435,3020 nM
same,GI50,NCI-H522 lung,595 nM
same,TGI,NCI-H522 lung,2030 nM
same,GI50,ACHN renal,1710 nM
same,TGI,ACHN renal,3080 nM
same,GI50,OVCAR-4 ovarian,1590 nM
same,TGI,OVCAR-4 ovarian,2950 nM
same,GI50,SF-268 CNS,1620 nM
same,TGI,SF-268 CNS,3310 nM
same,GI50,CAKI-1 renal,1470 nM
same,TGI,CAKI-1 renal,2800 nM
same,GI50,EKVX NSCLC,1810 nM
same,TGI,EKVX NSCLC,3240 nM
same,GI50,BT-549 breast,1580 nM
same,TGI,BT-549 breast,2950 nM
same,GI50,MALME-3M melanoma,1600 nM
same,TGI,MALME-3M melanoma,3060 nM
same,GI50,HL-60(TB) leukemia,2990 nM
same,TGI,HL-60(TB) leukemia,9120 nM
same,GI50,SF-295 CNS,1890 nM
same,TGI,SF-295 CNS,3500 nM
same,GI50,SNB-19 CNS,1610 nM
same,TGI,SNB-19 CNS,2980 nM
same,GI50,SK-MEL-5 melanoma,1550 nM
same,TGI,SK-MEL-5 melanoma,2940 nM
same,GI50,OVCAR-3 ovarian,1610 nM
same,TGI,OVCAR-3 ovarian,2980 nM
same,GI50,UO-31 renal,1660 nM
same,TGI,UO-31 renal,3020 nM
same,GI50,LOX IMVI melanoma,1630 nM
same,TGI,LOX IMVI melanoma,3000 nM
same,GI50,UACC-257 melanoma,1570 nM
same,TGI,UACC-257 melanoma,3110 nM
same,GI50,SR leukemia,1210 nM
same,TGI,SR leukemia,> 100000 nM
same,GI50,OVCAR-5 ovarian,1820 nM
same,TGI,OVCAR-5 ovarian,3270 nM
same,GI50,HOP-92 NSCLC,1640 nM
same,TGI,HOP-92 NSCLC,3030 nM
same,GI50,HOP-62 NSCLC,1870 nM
same,TGI,HOP-62 NSCLC,3530 nM
same,GI50,IGROV1 ovarian,1470 nM
same,TGI,IGROV1 ovarian,2820 nM
same,GI50,PC-3 prostate,1590 nM
same,TGI,PC-3 prostate,3070 nM
same,GI50,TK-10 renal,1800 nM
same,TGI,TK-10 renal,3210 nM
same,GI50,A498 renal,1570 nM
same,TGI,A498 renal,2930 nM
same,GI50,K-562 leukemia,2380 nM
same,TGI,K-562 leukemia,> 100000 nM
same,GI50,SNB-75 CNS,1320 nM
same,TGI,SNB-75 CNS,2600 nM
same,GI50,HCT-116 colon,1600 nM
same,TGI,HCT-116 colon,3010 nM
same,GI50,U251 CNS,1500 nM
same,TGI,U251 CNS,2860 nM
same,GI50,SF-539 CNS,1630 nM
same,TGI,SF-539 CNS,2990 nM
same,GI50,RXF 393 renal,1240 nM
same,TGI,RXF 393 renal,2510 nM
same,GI50,HCT-15 colon,1490 nM
same,TGI,HCT-15 colon,3080 nM
